According to patent US5594009A, “Fused pyrrolocarbazoles” (priority 1995, dated 1997):

Legend:
[1] = tested on: choline acetyltransferase (ChAT) activity in dissociated rat embryonic spinal cord culture; test: Spinal Cord ChAT Activity Assay; assay type: cell-based; settings: ChAT measured after 48 hours
[2] = tested on: ChAT activity of basal forebrain cultures; test: Basal Forebrain ChAT Activity Assay; assay type: cell-based, rat
Protocol: Fused pyrrolocarbazoles were tested for the ability to increase ChAT activity of basal forebrain cultures.
Methods: The basal forebrain was dissected from rat embryos (day 17 or 18 embryos) and the cells were dissociated with a neutral protease (Dispase™, Collaborative Research). Neurons were plated at a density of 5×10^4 cells/well (1.5×10^5 cells/cm^2) in poly-1-ornithine and laminin coated plates. Cells were cultured in serum-free N2 medium containing 0.05% BSA at 37° C. in a humidified atmosphere, 5% CO2 /95% air. ChAT activity was assessed 5 days after plating by using the ChAT assay as described in Example III(A)(1).

Compound	Spinal Cord ChAT Activity, % of Control, untreated cultures [1]	other results
2-Chloro-6H, 7H, 12H, 13H-indeno[2,3-a]pyrrolo[3,4-c]carbazole-5(5H)one and 2-chloro-5H, 6H, 12H, 13H-indeno[2,3-a]pyrrolo[3,4-c]carbazole-7(7H)one [Compound Ia-2]	161 % of Control	
3-Fluoro6H, 7H, 12H, 13H-indeno[2,3-a]pyrrolo[3,4-c]carbazole-5(5H)one and 3-fluoro-5H, 6H, 12H, 13H-indeno[2,3-a]pyrrolo[3,4-c]carbazole-7((7H)one [Compound I-8]	200 % of Control	
Cn1c2ccccc2c2c3c(c4c(c21)Cc1ccccc1-4)C(=O)NC3=O [Compound I-4, 13-Methyl-6H, 12H-indeno[2,3-a]pyrrolo[3,4-c]carbazole-5,7(5H, 7H)-dione]	124 % of Control	
O=C1NC(=O)c2c1c1c(c3[nH]c4ccc(Cl)cc4c23)Cc2ccccc2-1 [Compound I-10, 3-Chloro-6H , 12H, 13H-indeno[2,3-a]pyrrolo[3,4-c]carbazole-5,7(5H, 7H)-dione]	189 % of Control	
COc1ccc2[nH]c3c4c(c5c(c3c2c1)CNC5=O)-c1ccccc1C4 [Compound I-13, 3-Methoxy-5H, 6H, 12H, 13H-Indeno[2,3-a]pyrrolo[3,4-c]carbazole-7(7H)one]	217 % of Control	
O=C1NCc2c3c(c4[nH]c5ccc(Br)cc5c4c21)CCc1ccccc1-3 [Compound I-18, 3-Bromo-12,13-dihydro-6H, 7H, 14H-naphthyl[3,4-a]pyrrolo[3,4-c]carbazole-5(5H)one]	133 % of Control	
O=C1NCc2c1c1c(c3[nH]c4ccc(Br)cc4c23)CCc2ccccc2-1 [Compound I-19, 3-Bromo-12,13-Dihydro-5H, 6H, 14H-naphthyl[3,4-a]pyrrolo[3,4-c]carbazole-7(7H)one]	203 % of Control	
CCOC(=O)C=Cc1ccc2[nH]c3c4c(c5c(c3c2c1)CNC5=O)-c1ccccc1C4 [Compound I-25, 3-(3-Ethyl propenoate)-5H,6H,12H,13H-indeno[2,3-a]pyrrolo[3,4-c]carbazole-7(7H)one]	168 % of Control	
O=C1NCc2c1c1c(c3[nH]c4ccc(-c5ccccc5)cc4c23)Cc2ccccc2-1 [Compound I-27, 3-Phenyl-5H,6H,12H,13H-indeno[2,3-a]pyrrolo[3,4-c]carbazole-7(7H)one]	120 % of Control	
O=c1[nH]c(=O)c2c1c1c3ccccc3[nH]c1c1c(=O)c3ccccc3c12 [Compound I-28, 12-Oxo-6H,13H-indeno[2,3-a]pyrrolo[3,4-c]carbazole-5,7(5H,7H)dione]	< 120 % of Control	
O=C1NCc2c1c1c(c3[nH]c4ccc(C=Cc5ccncc5)cc4c23)Cc2ccccc2-1 [Compound I-33, 3-(2-(4-Pyridyl)ethenyl)-5H,6H,12H,13H-indeno[2,3-a]pyrrolo[3,4-c]carbazole-7(7H)-one]	144 % of Control	
N#CC=Cc1ccc2[nH]c3c4c(c5c(c3c2c1)CNC5=O)-c1ccccc1C4 [Compound I-35, 3-(2-Cyanoethenyl)-5H,6H,12H,13H-indeno[2,3-a]pyrrolo[3,4-c]carbazole-7(7H)one]	121 % of Control	
C#Cc1ccc2[nH]c3c4c(c5c(c3c2c1)CNC5=O)-c1ccccc1C4 [Compound I-36, 3-Ethynyl-5H,6H,12H,13H-indeno[2,3-a]pyrrolo[3,4-c]carbazole-7(7H)one]	167 % of Control	ChAT Activity (% of Control) ([2]; 1000 nM): inactive; activity at 0.1 µM ([2]; Rattus norvegicus, 120 h, 100 nM, read-out: ChAT Activity (% of Control)): 122%; activity at 0.25 µM ([2]; Rattus norvegicus, 120 h, 250 nM, read-out: ChAT Activity (% of Control)): 131%; activity at 0.5 µM ([2]; Rattus norvegicus, 120 h, 500 nM, read-out: ChAT Activity (% of Control)): 123%
CCCCCc1ccc2[nH]c3c4c(c5c(c3c2c1)C(=O)NC5=O)-c1ccccc1C4 [Compound I-37, 3-Pentyl-6H,12H,13H-indeno[2,3-a]pyrrolo[3,4-c]carbazole-5,7(5H,7H)dione]	< 120 % of Control	
O=C1NC(O)c2c1c1c3ccccc3ccc1c1[nH]c3ccccc3c21 (stereo not drawn) [Compound I-38, 5-Hydroxy-12,13-dihydro-6H, 14H-naphthyl[3,4-a]pyrrolo[3,4-c]carbazole-7(7H)one]	208 % of Control	
O=C1NCc2c1c1c(c3[nH]c4ccc(C=CN5C(=O)c6ccccc6C5=O)cc4c23)Cc2ccccc2-1 [Compound I-39, 3-(2-(2-Phthalimido)ethenyl)-5H,6H,12H,13H-indeno[2,3-a]pyrrolo[3,4-c]carbazole-7(7H)-one]	268 % of Control	
O=C1NCc2c1c1c(c3[nH]c4ccc(I)cc4c23)Cc2ccccc2-1 [Compound I-40, 3-Iodo-5H, 6H, 12H, 13H-indeno[2,3-a]pyrrolo[3,4-c]carbazole-7(7H)-one]	150 % of Control	
O=C1NCc2c3c(c4[nH]c5ccc(C=Cc6ccccn6)cc5c4c21)Cc1ccccc1-3 [Compound I-41, 3-(2-(2-Pyridylethenyl))-6H,7H,12H,13H-indeno[2,3-a]pyrrolo[3,4-c]carbazole-5(5H)-one]	122 % of Control	
O=C1NCc2c1c1c3ccccc3[nH]c1c1sc3ccccc3c21 [Compound I-42, 6H, 7H, 12H-Benzo[b]thieno[2,3-a]pyrrolo[3,4-c]carbazole-5(5H)one]	177 % of Control	
O=C1NCc2c1c1c3ccccc3sc1c1[nH]c3ccccc3c21 [Compound I-43, 6H, 7H, 12H-Benzo[b]thieno[2,3-a]pyrrolo[3,4-c]carbazole-7(7H)one]	138 % of Control	
O=C1NCc2c1c1c(c3[nH]c4ccc(C=CI)cc4c23)Cc2ccccc2-1 [Compound I-44]	127 % of Control	
O=C1NC(=O)c2c1c1c(c3[nH]c4ccccc4c23)Cc2cc(Br)ccc2-1 [Compound Ia-3, 10-bromo-6H, 12H, 13H-indeno[2,3-a]pyrrolo[3,4-c]carbazole-5,7(5H, 7H)dione]	138 % of Control	
O=C1NC(=O)c2c1c1c(c3[nH]c4ccccc4c23)CCc2cc(F)ccc2-1 [Compound Ia-4, 10-Fluoro-12,13-dihydro-6H, 14H-naphthyl[3,4-a]pyrrolo[3,4-c]carbazole-5,7(5H, 7H)dione]	< 120 % of Control	
O=C1NC(=O)c2c1c1c(c3[nH]c4ccccc4c23)CCc2cc(Br)ccc2-1 [Compound Ia-5, 10-Bromo-12,13-dihydro-6H, 14H-naphthyl[3,4,-a]pyrrolo[3,4-c]carbazole-5,7(5H, 7H)dione]	132 % of Control	
O=C1NC(=O)c2c1c1c(c3[nH]c4ccccc4c23)CCc2cc(C=Cc3ccccn3)ccc2-1 [Compound Ia-6]	139 % of Control	
O=C1NC(=O)c2c1c1c(c3[nH]c4ccccc4c23)CCc2cc(CCc3ccccn3)ccc2-1 [Compound Ia-7]	< 120 % of Control	
Cc1cccc2c1[nH]c1c3c(c4c(c12)C(=O)NC4=O)-c1ccccc1C3 [Compound Ib-1, 1-Methyl-12H, 13H-indeno[2,3-a]pyrrolo[3,4-c]carbazole-6H-5,7(5H, 7H)-dione]	138 % of Control	
O=C1NC(=O)c2c1c1c(c3[nH]c4ccccc4c23)Cc2ccc(Br)cc2-1 [Compound Ib-2]	153 % of Control	
mixture of 13-Methyl-6H, 7H, 12H-indeno[2,3-a]pyrrolo[3,4-c]carbazole-5(5H)one and 13-methyl-5H, 6H, 12H-indeno[2,3-a]pyrrolo[3,4,-c]carbazole-7(7H)one [Compound I-5]	137 % of Control	
